Source: ChEMBL document CHEMBL1909294, “Translating clinical findings into knowledge in drug safety evaluation--drug induced liver injury prediction system (DILIps)” (PLoS Comput Biol, 2011)
Where a SMILES comes first, the peptide text is derived from it. Bridges are numbered along the chain shown (N, C = ends). [ ]: non-standard residue; d: D form. hArg = N=C(N)NCCCC[C@H](N)C(=O)O; Mpa = O=C(O)CCS

Columns and labels:
Hepatotoxicity [1] = tested on: Hepatotoxicity;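 for HepSE Combined Scores: combined hepatic side effect score as listed in the training data of the Drug Induced Liver Injury Prediction System (DILIps)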;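 for HepSE bilirubinemia: bilirubinemia hepatic side effect score drawn from the DILIps training data, a prediction system for drug-induced liver injury; call rule not given here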;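 for HepSE cholecystitis: Cholecystitis-related hepatic side effect score drawn from the DILIps (drug-induced liver injury prediction) training data set; call rule not given here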;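 for HepSE elevated liver function tests: hepatic side effect score for raised liver function tests, as recorded in the DILIps training set used for predicting drug-induced liver injury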;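 for HepSE hepatomegaly: hepatic side effect score for hepatomegaly, taken from the training set of the DILIps drug-induced liver injury prediction system; call rule not given here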;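 for HepSE liver function tests abnormal: hepatic side effect score taken from the DILIps (drug-induced liver injury prediction system) training data, here covering abnormal liver function test findings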
Hepatotoxicity [2] = tested on: Hepatotoxicity; remark: listed apart in the source;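 for HepSE Combined Scores: combined hepatic side effect score as listed in the training data of the Drug Induced Liver Injury Prediction System (DILIps)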;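 for HepSE bilirubinemia: bilirubinemia hepatic side effect score drawn from the DILIps training data, a prediction system for drug-induced liver injury; call rule not given here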;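 for HepSE cholecystitis: Cholecystitis-related hepatic side effect score drawn from the DILIps (drug-induced liver injury prediction) training data set; call rule not given here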;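 for HepSE elevated liver function tests: hepatic side effect score for raised liver function tests, as recorded in the DILIps training set used for predicting drug-induced liver injury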;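 for HepSE hepatomegaly: hepatic side effect score for hepatomegaly, taken from the training set of the DILIps drug-induced liver injury prediction system; call rule not given here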;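 for HepSE liver function tests abnormal: hepatic side effect score taken from the DILIps (drug-induced liver injury prediction system) training data, here covering abnormal liver function test findings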
Hepatotoxicity [3] = tested on: Hepatotoxicity; remark: listed apart in the source;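 for HepSE Combined Scores: combined hepatic side effect score as listed in the training data of the Drug Induced Liver Injury Prediction System (DILIps)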;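 for HepSE bilirubinemia: bilirubinemia hepatic side effect score drawn from the DILIps training data, a prediction system for drug-induced liver injury; call rule not given here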;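 for HepSE cholecystitis: Cholecystitis-related hepatic side effect score drawn from the DILIps (drug-induced liver injury prediction) training data set; call rule not given here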;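 for HepSE elevated liver function tests: hepatic side effect score for raised liver function tests, as recorded in the DILIps training set used for predicting drug-induced liver injury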;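 for HepSE hepatomegaly: hepatic side effect score for hepatomegaly, taken from the training set of the DILIps drug-induced liver injury prediction system; call rule not given here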;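 for HepSE liver function tests abnormal: hepatic side effect score taken from the DILIps (drug-induced liver injury prediction system) training data, here covering abnormal liver function test findings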
Hepatotoxicity [4] = tested on: Hepatotoxicity; remark: listed apart in the source;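 for HepSE Combined Scores: combined hepatic side effect score as listed in the training data of the Drug Induced Liver Injury Prediction System (DILIps)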;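 for HepSE bilirubinemia: bilirubinemia hepatic side effect score drawn from the DILIps training data, a prediction system for drug-induced liver injury; call rule not given here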;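 for HepSE cholecystitis: Cholecystitis-related hepatic side effect score drawn from the DILIps (drug-induced liver injury prediction) training data set; call rule not given here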;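 for HepSE elevated liver function tests: hepatic side effect score for raised liver function tests, as recorded in the DILIps training set used for predicting drug-induced liver injury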;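 for HepSE hepatomegaly: hepatic side effect score for hepatomegaly, taken from the training set of the DILIps drug-induced liver injury prediction system; call rule not given here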
Hepatotoxicity [5] = tested on: Hepatotoxicity; remark: listed apart in the source
Hepatotoxicity [6] = tested on: Hepatotoxicity; remark: listed apart in the source
Hepatotoxicity [7] = tested on: Hepatotoxicity; remark: listed apart in the source
Hepatotoxicity [8] = tested on: Hepatotoxicity; remark: listed apart in the source
Hepatotoxicity [9] = tested on: Hepatotoxicity; remark: listed apart in the source
Hepatotoxicity [10] = tested on: Hepatotoxicity; remark: listed apart in the source
Hepatotoxicity [11] = tested on: Hepatotoxicity; remark: listed apart in the source
Hepatotoxicity [12] = tested on: Hepatotoxicity; remark: listed apart in the source
Hepatotoxicity [13] = tested on: Hepatotoxicity; remark: listed apart in the source
Hepatotoxicity [14] = tested on: Hepatotoxicity; remark: listed apart in the source

Compound	HepSE_bilirubinemia (Hepatotoxicity [1])	HepSE_hepatomegaly (Hepatotoxicity [2])	HepSE_cholecystitis (Hepatotoxicity [3])	HepSE_Combined Scores (Hepatotoxicity [4])	HepSE_elevated liver function tests (Hepatotoxicity [5])	HepSE_liver function tests abnormal (Hepatotoxicity [6])	HepSE_liver disease (Hepatotoxicity [7])	HepSE_jaundice (Hepatotoxicity [8])	HepSE_cholelithiasis (Hepatotoxicity [9])	HepSE_hepatitis (Hepatotoxicity [10])	HepSE_hepatic failure (Hepatotoxicity [11])	HepSE_cirrhosis (Hepatotoxicity [12])	HepSE_hepatic necrosis (Hepatotoxicity [13])	HepSE_liver fatty (Hepatotoxicity [14])	also measured
O=P(O)(O)C(O)(Cc1cccnc1)P(=O)(O)O [RISEDRONIC ACID]	0	0	0	0	0	0	0	0	0	0	0	0	0	0	
CN(C/C=C/c1ccccc1)Cc1cccc2ccccc12 [NAFTIFINE]															HepSE_bilirubinemia (Hepatotoxicity [1]; Liver): 0; HepSE_hepatomegaly (Hepatotoxicity [2]; Liver): 0; HepSE_cholecystitis (Hepatotoxicity [3]; Liver): 0; HepSE_Combined Scores (Hepatotoxicity [4]; Liver): 0; HepSE_elevated liver function tests (Hepatotoxicity [5]; Liver): 0; HepSE_liver function tests abnormal (Hepatotoxicity [6]; Liver): 0; HepSE_liver disease (Hepatotoxicity [7]; Liver): 0; HepSE_jaundice (Hepatotoxicity [8]; Liver): 0; HepSE_cholelithiasis (Hepatotoxicity [9]; Liver): 0; HepSE_hepatitis (Hepatotoxicity [10]; Liver): 0; HepSE_hepatic failure (Hepatotoxicity [11]; Liver): 0; HepSE_cirrhosis (Hepatotoxicity [12]; Liver): 0; HepSE_hepatic necrosis (Hepatotoxicity [13]; Liver): 0; HepSE_liver fatty (Hepatotoxicity [14]; Liver): 0
COc1cc2nc(N(C)CCCNC(=O)C3CCCO3)nc(N)c2cc1OC (configuration not stated) [ALFUZOSIN]	0	0	0	2	0	0	1	1	0	0	0	0	0	0	
CN1CCc2cccc3c2[C@H]1Cc1ccc(O)c(O)c1-3 [APOMORPHINE]	0	0	0	0	0	0	0	0	0	0	0	0	0	0	
NCCCCCC(=O)O [AMINOCAPROIC ACID]	0	0	0	0	0	0	0	0	0	0	0	0	0	0	
CC(NC(C)(C)C)C(=O)c1cccc(Cl)c1 (configuration not stated) [BUPROPION]	0	0	0	2	0	0	0	1	0	1	0	0	0	0	
N=C(N)NCCCC[C@@H]1NC(=O)CCSSC[C@@H](C(N)=O)NC(=O)[C@@H]2CCCN2C(=O)[C@H](Cc2c[nH]c3ccccc23)NC(=O)[C@H](CC(=O)O)NC(=O)CNC1=O [EPTIFIBATIDE] ([Mpa][hArg]GDWPC-NH2; disulfide 1-7)	0	0	0	0	0	0	0	0	0	0	0	0	0	0	
CO[C@H]1C[C@@H]2CC[C@@H](C)[C@@](O)(O2)C(=O)C(=O)N2CCCC[C@H]2C(=O)O[C@H]([C@H](C)C[C@@H]2CC[C@@H](O)[C@H](OC)C2)CC(=O)[C@H](C)/C=C(\C)[C@@H](O)[C@@H](OC)C(=O)[C@H](C)C[C@H](C)/C=C/C=C/C=C/1C [SIROLIMUS]	1	0	0	3	0	1	0	0	0	0	0	0	1	0	
CC(C)(C)NCC(O)c1cc(O)cc(O)c1 (configuration not stated) [TERBUTALINE]	0	0	0	0	0	0	0	0	0	0	0	0	0	0	
N=C(N)NC(=O)c1nc(Cl)c(N)nc1N [AMILORIDE]	0	0	0	2	0	0	1	1	0	0	0	0	0	0	
O=c1[nH]cnc2c1ncn2[C@H]1CC[C@@H](CO)O1 [DIDANOSINE]	0	1	0	4	0	0	0	0	0	1	1	0	0	1	
CCc1cc(C(N)=S)ccn1 [ETHIONAMIDE]															HepSE_bilirubinemia (Hepatotoxicity [1]; Liver): 0; HepSE_hepatomegaly (Hepatotoxicity [2]; Liver): 0; HepSE_cholecystitis (Hepatotoxicity [3]; Liver): 0; HepSE_Combined Scores (Hepatotoxicity [4]; Liver): 2; HepSE_elevated liver function tests (Hepatotoxicity [5]; Liver): 0; HepSE_liver function tests abnormal (Hepatotoxicity [6]; Liver): 0; HepSE_liver disease (Hepatotoxicity [7]; Liver): 0; HepSE_jaundice (Hepatotoxicity [8]; Liver): 1; HepSE_cholelithiasis (Hepatotoxicity [9]; Liver): 0; HepSE_hepatitis (Hepatotoxicity [10]; Liver): 1; HepSE_hepatic failure (Hepatotoxicity [11]; Liver): 0; HepSE_cirrhosis (Hepatotoxicity [12]; Liver): 0; HepSE_hepatic necrosis (Hepatotoxicity [13]; Liver): 0; HepSE_liver fatty (Hepatotoxicity [14]; Liver): 0
CCCCCCCN(CC)CCCC(O)c1ccc(NS(C)(=O)=O)cc1 (configuration not stated) [IBUTILIDE]	0	0	0	1	1	0	0	0	0	0	0	0	0	0	
